Measurements: US4734280A, “Treatment or prevention of PAF Acether-induced maladies” (priority 1984, dated 1988)
Like-named read-outs stand apart in the source and are kept apart here.

How the values were obtained:
[1] = tested on: guinea-pig mesenteric artery; experiment: Opto-electronic follow-up of PAF Acether-induced thrombus, guinea-pig mesenteric artery; type: in vivo
Source text: In this experimental study, 20 guinea-pigs were used. […] Briefly summarized, this method consists in the dissection over a distance of 2 to 3 mm of a branch of the mesenteric artery following gently extraction of a loop of small intestine. By transillumination, the image of this arterial segment is projected onto a set of 30 light-depending resistances (LDR) arranged in two columns of 15 elements each. An LDR element has the property to change its internal resistance as a function of a variation of light intensity. Each LDR is connected into its own Wheatstone bridge, and the changes in light intensity due to thrombus formation will be recorded as variations in electrical potentials and registered as such via a multiplexing device.
In the present investigation, several discriminating parameters are recorded: (a) the t1 interval or the lag period (this is the time interval between the beginning of the PAF Acether superfusion and the first signs of thrombus formation; (b) the td interval is the duration of the thrombotic phenomenon; (c) the O(t) curve indicates the number of LDR elements covered by the thrombus image; (d) the D(t) curve represents during each 30×1/9×10^-2 sec interval the greatest potential deviation on one of the LDR elements covered by the thrombus image; (e) the T(t) curve represents the summation of the potentials registered on the LDR elements during a time interval of 30×1/9×10^-2 sec the TTV(t) curve results from the integration of the T(t) values in function of time; (f) mD, mT, and mO correspond to the maximal values registered on, respectively, the D(t), T(t), and O(t) curves; (g) TTV is the maximal value of the TTV(t) curve, whereas TVM is the value of this curve up to the point where mT is reached.
In a first series of experiments (10 animals) the effect of local superfusion with PAF Acether (10^-4 M) is investigated.
In a second series of experiments (10 animals) the effects of Ginkgolide B and of kadsurenone have been compared preventively and curatively.

[2] = tested on: guinea-pig lung parenchymal strip; experiment: PAF Acether-induced contraction of superfused lung parenchymal strip
rabbit platelets = experiment: Ex vivo PAF Acether-induced rabbit PA after per os or IV administration; type: in vivo; conditions: for activity at 0.5 mg/kg / activity at 1 mg/kg / activity at 2 mg/kg: Oryctolagus cuniculus, Platelet, iv, read-out: PAF Acether-induced rabbit PA (% of control); for activity at 0.5 mg/kg: IV 0.5 mg/kg; for activity at 1 mg/kg: IV 1 mg/kg; for activity at 2 mg/kg: IV 2 mg/kg
Description: Drugs were administered per os (2,5 and 10 mg/kg) or by IV route (0.5, 1, 2 mg/kg) and blood samples were taken at different times to test platelet aggregation with PAF-Acether ([…]) (see following table wherein the figures appearing are the ratio to the control with the solvent used, i.e. DMSO).

[3] = tested on: guinea-pig isolated heart; experiment: Isolated Langendorff heart, PAF Acether effect; conditions: PAF Acether 100 pM
Source text: The deletereous effect of PAF Acether on Isolated Langendorff heart has been previously described by J. BENVENISTE, C. BOULLET, C. BRINK and C. LABAT, Brit. J. Pharmacol, The action of PAF Acether on guinea-pig isolated heart preparation, 80: 81-3 (1983).
PAF Acether (100 pM) induced a decline in contractile strength (-30%) and a decrease of coronary flow (-50%).
This effect was dose-dependent (disappearance of protective activity when dose ≤10^-7 M).

[4] = tested on: rabbit plasma-rich platelets (PRP); experiment: Inhibition of PAF Acether-induced PA, rabbit PRP in vitro; type: cell-based; conditions: Oryctolagus cuniculus, Platelet, average of 10 assays, read-out: IC50 doses on PAF Acether-induced rabbit PA (PRP)
Description: The Inhibition of PAF Acether-induced PA has been studied on rabbit plasma-rich platelets (PRP). Two doses of PAF Acether were used (2.5 nM and 5 nM). The tested compound was added to the medium 3 minutes before PAF Acether and aggregation was followed by monitoring changes in electrical impedance (Whole-Blood aggregometer-chrono-Log); kadsurenone was simultaneously tested as reference compound and the IC50 molar doses of Ginkgolides A, B, C and M and of kadsurenone on PAF Acether-induced rabbit PA (PRP) have been calculated.
The results obtained are presented in the following table (average values for 10 assays for each dose) and FIG. 1: […]

Sprague-Dowley rats = experiment: Cutaneous vascular hyperpermeability induced by PAF Acether in the rat; type: in vivo; conditions: 1 mg/kg IV
Description: Method: Intradermal injection of 25 ng of PAF Acether in the dorsal region of the rat with simultaneous IV injection of Evans blue dye (60 mg/kg/5 ml) induces vascular hyperpermeability and wheals formation. (for details see Basran GS, Page CP, Paul W and Morley J-Cromoglycate inhibits responses to platelet-activating factor (PAF Acether) in man: an alternative mode of action for DSCG in asthma-Eur. J. Pharma. (1983) 86 143-144).
These wheals were measured (surface in mm^2) at the inner side of the skin 30 mn after the injections and were taken off, put in 4 ml of formamide, incubated at 65° C. during 24 h in order to extract the dye and measure their coloration (optical density at 620 nm).
Groups of 6 Sprague-Dowley rats weighing 200 g were used and each rat received intradermal injections in two sites of the back. The experiment was performed in comparison with a reference compound, D 600 (methoxy verapamil), a calcium-blocker agent.
Treatments: Tested compounds were administered by IV route injected once simultaneously with the dye.

[5] = 0.5 h, PAF Acether 2.5 nM, 0.5 h
[6] = 0.5 h, PAF Acether 5.0 nM, 0.5 h

`CC1C(=O)OC2C(O)C34C5CC(C(C)(C)C)C36C(OC(=O)C6O)OC4(C(=O)O5)C12O` (centres unmarked) [Ginkgolide B] was tested, and the “thrombus formation when superfused with PAF Acether (preventive)” value ([1]; PAF Acether superfusion) was “no thrombus appeared”, the “time for disappearance of pre-formed thrombus (curative)” value ([1]; PAF Acether-induced thrombus) was 2.30 min and the inhibition at 30 µg/mL ([2]; Cavia porcellus, read-out: change of PAF Acether (3 ng)-induced contraction) was 78.8%. For the same molecule, the “Contraction induced by PAF Acether (3 ng) (Arbitrary Units)” value ([2]; preventive superfusion 30 μg/ml, average of 10 determinations) was 8.05 ± 2.16 Arbitrary Units, the activity at 0.5 mg/kg (rabbit platelets; [5]) was 0% and the activity at 0.5 mg/kg (rabbit platelets; [6]) was 0%. It also gave an activity at 1 mg/kg (rabbit platelets; [5]) of 0%, an activity at 1 mg/kg (rabbit platelets; [6]) of 0% and an activity at 2 mg/kg (rabbit platelets; [5]) of 0%. It also gave an activity at 2 mg/kg (rabbit platelets; [6]) of 0%, an activity at 0.5 mg/kg (rabbit platelets; 1 h, PAF Acether 2.5 nM, 1 h) of 7.4% and an activity at 0.5 mg/kg (rabbit platelets; 1 h, PAF Acether 5.0 nM, 1 h) of 9.4%. The activity at 1 mg/kg (rabbit platelets; 1 h, PAF Acether 2.5 nM, 1 h) was 0%, the activity at 1 mg/kg (rabbit platelets; 1 h, PAF Acether 5.0 nM, 1 h) was 1.1% and the activity at 2 mg/kg (rabbit platelets; 1 h, PAF Acether 2.5 nM, 1 h) was 0%. The activity at 2 mg/kg (rabbit platelets; 1 h, PAF Acether 5.0 nM, 1 h) was 0%, the activity at 0.5 mg/kg (rabbit platelets; 2 h, PAF Acether 2.5 nM, 2 h) was 11.2% and the activity at 0.5 mg/kg (rabbit platelets; 2 h, PAF Acether 5.0 nM, 2 h) was 14.5%. The activity at 1 mg/kg (rabbit platelets; 2 h, PAF Acether 2.5 nM, 2 h) was 4.1%, the activity at 1 mg/kg (rabbit platelets; 2 h, PAF Acether 5.0 nM, 2 h) was 7.2% and the activity at 2 mg/kg (rabbit platelets; 2 h, PAF Acether 2.5 nM, 2 h) was 0%. The activity at 2 mg/kg (rabbit platelets; 2 h, PAF Acether 5.0 nM, 2 h) was 0%, the “PAF Acether-induced rabbit PA (% of control)” value (rabbit platelets; per os 2 mg/kg, PAF Acether 2.5 nM, 0.5 h) was 23% and the “PAF Acether-induced rabbit PA (% of control)” value (rabbit platelets; per os 2 mg/kg, PAF Acether 2.5 nM, 1 h) was 37%. For the same molecule, the “PAF Acether-induced rabbit PA (% of control)” value (rabbit platelets; per os 2 mg/kg, PAF Acether 2.5 nM, 2 h) was 54%, the “PAF Acether-induced rabbit PA (% of control)” value (rabbit platelets; per os 2 mg/kg, PAF Acether 5.0 nM, 0.5 h) was 34.5% and the “PAF Acether-induced rabbit PA (% of control)” value (rabbit platelets; per os 2 mg/kg, PAF Acether 5.0 nM, 1 h) was 47.8%. The “PAF Acether-induced rabbit PA (% of control)” value (rabbit platelets; per os 2 mg/kg, PAF Acether 5.0 nM, 2 h) was 71.2%, the “PAF Acether-induced rabbit PA (% of control)” value (rabbit platelets; per os 5 mg/kg, PAF Acether 2.5 nM, 1 h) was 7% and the “PAF Acether-induced rabbit PA (% of control)” value (rabbit platelets; per os 5 mg/kg, PAF Acether 2.5 nM, 2 h) was 10%. The “PAF Acether-induced rabbit PA (% of control)” value (rabbit platelets; per os 5 mg/kg, PAF Acether 5.0 nM, 0.5 h) was 6%, the “PAF Acether-induced rabbit PA (% of control)” value (rabbit platelets; per os 5 mg/kg, PAF Acether 5.0 nM, 1 h) was 11.4% and the “PAF Acether-induced rabbit PA (% of control)” value (rabbit platelets; per os 5 mg/kg, PAF Acether 5.0 nM, 2 h) was 27.1%. For the same molecule, the “inhibition of PAF Acether-induced decline in contractile strength and decrease of coronary flow” value ([3]; 2.10^-4 M) was “totally inhibited”, the “dose at which protective activity disappears” value [3] was ≤ 10^-7 M and the IC50 ([4]; PAF Acether 2.5 nM) was 1.88 µM. For the same molecule, the IC50 ([4]; PAF Acether 5 nM) was 3.2 µM, the “PAF Acether induced wheal, Surface” value (Sprague-Dowley rats; PAF Acether 25 ng intradermal, 30 mn, p < 0.001) was 58.5 mm^2 and the “PAF Acether induced wheal, Coloration OD” value (Sprague-Dowley rats; optical density at 620 nm, p < 0.001) was 0.628 OD. The “PAF Acether induced wheal, Coloration % decrease” value (Sprague-Dowley rats; vs control) was -45% and the “PAF Acether induced wheal, Surface % decrease” value (Sprague-Dowley rats; vs control) was -43%.
